{"source": "patent US20070087344A1", "about": "“Methods for characterizing signaling pathways and compounds that interact therewith” (BIOSEEK, INC., priority 2003, published 2007)", "assay_type_in_all_cases": "cell-based, human", "key": {"[1]": {"tested_on": "Endothelial cells over-expressing single genes from NFkB, PI3K/Akt, RAS/MAPK or JAK/STAT pathways", "test": "Compound profiling in 20 gene over-expression assays (NFkB, PI3K/Akt, RAS/MAPK, JAK/STAT), pairwise Pearson correlation", "conditions": "DRB 10 micromolar, Apigenin 6 micromolar, 24 hours", "quoted_text": "Endothelial cells expressing 16 individual genes from NFκB, RAS, PI3K/AKT and JAK/STAT (IFN-γ and IL-4) pathways were treated with compounds for 24 hours. Where indicated additional cytokines were added to cells to reveal activity of the over-expressed genes (e.g. AKT1/IL1 means that IL-1-beta was added to AKT-over-expressing cells). Parameters measured were VCAM-1 for NFκB, PI3K, and RAS/MAPK pathway genes, HLA-DR for JAK/STAT(IFNγ) pathway genes, and VCAM-1 (IL4/VCAM-1) and Eotaxin-3 (IL4/Eot3) for JAK/STAT(IL4) pathway. […] Statistically significant correlations (permutation method described further in the text and in Example 1B) in the table are shaded (dark grey for correlation coefficients in the range of 0.75 to 1, and light grey for the range of 0.55 to 0.75).\nWith a permutation technique, an average distribution of the correlation coefficients that will be obtained by chance is constructed and the values of the correlations that correspond to a required level of significance are obtained. The original similarity matrix is filtered using these values, thus providing a consistent way of identifying correlations coefficients with potential biological significance. This method also allows calculation of a false positive rate, providing the user with a way of balancing “hit rate” and stringency of correlation significance. […]"}, "[2]": {"tested_on": "HUVEC cell lines over-expressing IKBKB", "test": "VCAM-1 expression (ELISA) in HUVEC over-expressing IKBKB"}, "[3]": {"tested_on": "HUVEC cell lines over-expressing RELA", "test": "VCAM-1 expression (ELISA) in HUVEC over-expressing RELA"}, "[4]": {"tested_on": "RAS*, RAF* or MEK1* over-expressing cells", "test": "Profiles induced by over-expression of RAS*, RAF* or MEK1* genes", "source_text": "The pathway information developed by practice of the methods of the present invention facilitates the in-depth characterization (mechanism-of-action studies) of chemical compounds. […] A high throughput approach can be used to test a compound against genes from known signaling pathways, as well as genes of unknown pathway origin."}, "[5]": {"tested_on": "MYD88 over-expressing endothelial cells", "test": "Response to MYD88 over-expression in IL-1-beta-treated endothelial cells (VCAM-1, E-selectin)", "conditions": "IL-1-beta-treated cells; MYD88 inhibits VCAM-1 and E-selectin expression", "description": "(§1) A. Grouping Genes into Signal Transduction Pathways by Gene Over-Expression. Genes encoding key elements of pro-inflammatory pathways (IL-1, TNF-alpha, CD40, and IFN-gamma), the core NFkB pathway, the PI3K/Akt pathway, and the RAS/RAF/MEK pathway (see Table 2) were introduced into endothelial cells by retroviral transduction and allowed to express their encoded proteins for 48 hours, substantially as described in Example 1. The gene-modified endothelial cells were then subjected to 24 hour cytokine stimulation.\n(§2) Gene over-expression generally results in activation of the target pathway (in contrast to most pharmaceutical drugs, which are typically inhibitors).\n(§3) To explore this observation further, we re-examined the response to MYD88 and genes encoding representative members of the RAS/MAPK and NFkB pathways (RAS* and TNFRSF1A, respectively) in all individual cell systems. […] By contrast, the response induced by MYD88 in IL-1-beta-treated cells was similar to that induced by RAS*, the main effect being to inhibit expression of the adhesion molecules VCAM-1 and E-selectin. Over-expression of MYD88 thus appears to stimulate the RAS/MAPK pathway under these conditions. […] MYD88 (and IRAK1) are known to be involved in IL-1-induced but not in TNF-induced signaling, and PD098059 indeed had no effect on VCAM-1 expression in TNF-alpha-treated cells. […]"}, "[6]": {"tested_on": "RAS* over-expressing endothelial cells", "test": "Response to RAS* over-expression in IL-1-beta-treated endothelial cells (VCAM-1, E-selectin)", "conditions": "IL-1-beta-treated cells; RAS* inhibits VCAM-1 and E-selectin expression", "description": "as §1, §2, §3"}, "[7]": {"tested_on": "TNF-alpha-treated cells", "test": "VCAM-1 expression in TNF-alpha-treated endothelial cells", "source_text": "as §2\nTo explore this observation further, we re-examined the response to MYD88 and genes encoding representative members of the RAS/MAPK and NFkB pathways (RAS* and TNFRSF1A, respectively) in all individual cell systems. […] By contrast, the response induced by MYD88 in IL-1-beta-treated cells was similar to that induced by RAS*, the main effect being to inhibit expression of the adhesion molecules VCAM-1 and E-selectin. Over-expression of MYD88 thus appears to stimulate the RAS/MAPK pathway under these conditions. […] MYD88 (and IRAK1) are known to be involved in IL-1-induced but not in TNF-induced signaling, and PD098059 indeed had no effect on VCAM-1 expression in TNF-alpha-treated cells. Multi-system analysis can thus detect novel functional interrelationships between different signaling pathways."}, "[8]": {"tested_on": "HUVEC stimulated with IL-1-beta, TNF-alpha and IFN-gamma", "test": "Functional profiles in HUVEC stimulated with IL-1-beta, TNF-alpha and IFN-gamma compared with siRNA knock-down profiles", "conditions": "E-selectin, HLA-DR, ICAM-1, IL-8, MCP-1, MIG, VCAM-1 readouts", "excerpt": "The cells used to generate functional profiles were HUVEC stimulated with a mixture of cytokines IL-1beta+TNF-alpha+IFN-gamma, and the readout parameters were E-selectin, HLA-DR, ICAM-1, IL-8, MCP-1, MIG and VCAM-1. Statistical analysis (permutation method) and generation of a two-dimensional map was done as described above.\nEarly passage (<5) exponentially growing HUVEC cells were harvested, washed once with PBS, and resuspended at 2×10^6 cells in 100 microliter Nucelofection solution (Human Umbilical Vein Endothelial Cell Nucleofector Kit, AMAXA, Koeln, Germany). SiRNA (15 microliter of a 20 micromolar solution; Dharmacon, Lafayette, Colo.) was added to the cell suspension, transferred into an electroporation cuvette, and electroporated using the U-1 setting on an AMAXA Nucleofector device. The cell suspension was then transferred into a separate tube containing 3 ml of complete EGM-2 media (Clonetics), incubated at 37° C. for 10 minutes, and plated into 96-well microtiter plates (25,000 cells/well) for cytokine activation and ELISA analysis as described above. Statistical analyses and pairwise correlation analyses of functional profiles obtained by gene knock-down were performed in the manner as described for the gene-over-expression approach described above."}, "[9]": {"tested_on": "HUVEC cell lines over-expressing TNF-alpha", "test": "VCAM-1 expression (ELISA) in HUVEC over-expressing TNF-alpha"}}, "note": "“Also recorded” adds a separate entry of the source. Where two headings read alike, the source gives them in different places.", "data": [{"compound": "OC[C@H]1O[C@@H](n2cnc3cc(Cl)c(Cl)cc32)[C@H](O)[C@@H]1O", "note": "[DRB]", "values": [{"measurement": "Overlap of functional profile with those of 17-MG and beta-zearalenol", "setting": "[1]", "result": "only in the JAK/STAT portion of the overall profile"}]}, {"compound": "CC(Cc1ccc(O)c(O)c1)C(C)Cc1ccc(O)c(O)c1", "note": "(stereo not shown) [NDGA, nordihydroguaiaretic acid]", "values": [{"measurement": "Inhibition of IKBKB induced VCAM-1 expression", "setting": "[2]", "result": "not IKBKB or RELA induced VCAM-1 expression; also recorded: inhibits only the TNF-alpha gene"}, {"measurement": "Inhibition of RELA induced VCAM-1 expression", "setting": "[3]", "result": "not IKBKB or RELA induced VCAM-1 expression; also recorded: inhibits only the TNF-alpha gene"}]}, {"compound": "COc1cccc(-c2cc(=O)c3ccccc3o2)c1N", "note": "[PD098059]", "values": [{"measurement": "Effect on profiles induced by RAS*, RAF* or MEK1* genes", "setting": "[4]; gene over-expressing cells", "result": "affected"}, {"measurement": "Effect on the response induced by MYD88 over-expression", "setting": "[5]", "result": "reversed the effect"}, {"measurement": "Effect on the response induced by RAS* over-expression", "setting": "[6]", "result": "reversed the effect"}, {"measurement": "Effect on VCAM-1 expression", "setting": "[7]", "result": "no effect"}]}, {"compound": "Oc1ccc(-c2nc(-c3ccncc3)c(-c3ccc(F)cc3)[nH]2)cc1", "note": "[SB202190]", "values": [{"measurement": "Similarity of functional profile to siRNA-mediated dual knock-down of MEK3 and 6", "setting": "[8]", "result": "similar"}]}, {"compound": "N#CC(=C(/N)Sc1ccccc1N)/C(C#N)=C(/N)Sc1ccccc1N", "note": "[Uo126]", "values": [{"measurement": "Effect on profiles induced by RAS*, RAF* or MEK1* genes", "setting": "[4]", "result": "affected"}]}, {"compound": "O=c1cc(-c2ccc(O)cc2)oc2cc(O)cc(O)c12", "note": "[apigenin]", "values": [{"measurement": "Overlap of functional profile with those of 17-MG and beta-zearalenol", "setting": "[1]", "result": "only in the JAK/STAT portion of the overall profile"}]}, {"compound": "CC(C)Cc1ccc(C(C)C(=O)O)cc1", "note": "(stereo not shown) [ibuprofen]", "values": [{"measurement": "Inhibition of IKBKB induced VCAM-1 expression", "setting": "[2]", "result": "inhibits TNF-alpha and IKBKB genes"}, {"measurement": "Inhibition of RELA induced VCAM-1 expression", "setting": "[3]", "result": "not in RELA over-expressing cells"}, {"measurement": "Inhibition of TNF-alpha induced VCAM-1 expression", "setting": "[9]", "result": "inhibits TNF-alpha and IKBKB genes"}]}]}
